A short description of series [1]: Total, sublimation and solvation enthalpies of HCQS in scCO2 from Chrastil, reformulated Chrastil and Bartle et al. model constants. It counts as physicochemical. From the text: In the year 1981, Josef Chrastil presented a model for the solubility of solids/liquids in SCF. The main basis of the model is a solvate complex formulation based on a simple reaction. According to Chrastil, solubility is explained by c2=c2(κ,ρ1,T) , where κ is association number, ρ1 is solvent density (scCO2) and T is temperature. Chrastil proposed Eq. (19)19 c2=ρ1κexpA1+B1/T
In the year 2009, Garlpati and Madras has reformulated Chrastil's model and it is expressed by Eq. (21), where solubility is explained by y2=y2κ^′,ρ1,T , in which κ^′ is association number, ρ1 is solvent density (scCO2) and T is temperature.21 y2=RTρ1/MScFf^∙^κ^′-1expA2+B2/T in Eq. (21), R denotes universal constant of ideal gas, MScF is molecular weight of solvent, f^∗ is reference pressure and A2 and B2 are the Reformulated model constants.
The solute sublimation enthalpy is calculated with Bartle et al., model and it is stated as23 lny2P/Pref=A4+B4/T+C4ρ1-ρref where A4 to C4 are the model constants. Using the constant B4 , sublimation enthalpy is calculated (i.e., ΔsubH=-B4R ).
Solid–liquid model requires enthalpy of fusion, molar volume and melting point of the solute. Enthalpy of fusion is estimated with the help Jain et al.[77], and molar volume of the solute is estimated with the help Immirzi and Perini method. The calculated molar enthalpy and molar volumes are 65,208 J mol^−1 and 3.306 × 10^–4 m^3 mol^−1, respectively. The melting temperature is obtained from the material safety data sheet as 240 °C. From Chrastil's model constant ( B1 ), total enthalpy is calculated ( B1 × R). From Bartle’s model constant ( B4 ), sublimation enthalpy is calculated ( ΔsubH=-B4R ). From the magnitude difference between total and sublimation enthalpies, solvation enthalpy is calculated. Similarly, from reformulated Chrastil's model constant ( B2 ) and Bartle’s model constant ( B4 ), combination solvation enthalpy is calculated. […] This may be due to a smaller number of parameters in the models; on the other hand, the correlating ability of the solvate complex models is quite good. […]

Series [2] is described as follows: Static equilibrium solubility of HCQS in supercritical carbon dioxide (UV-vis spectrophotometer). The following applies: for solubility thermodynamic at 1 h: thermodynamic from solid, read-out: Equilibrium solubility, S. The series is classed as physicochemical. The procedure: SCF-solubility of the drugs was experimentally measured via two broad classes of saturated solution-based methods, where solubility measurement can be done either (1) statically or (2) dynamically. […] The solubilities were measured with the help of an equilibrium cell. Thermodynamically, the method employed may be regarded as an isobaric-isothermal method. All the measurements are taken by keeping system temperatures and pressures at the desired value with high precision (i.e., ± 0.1 K and ± 0.1 MPa). Complete details about the equipment and measurement procedures are presented elsewhere[15]–[35]. However, the description of the equipment and the methodology employed in establishing solubility data are briefly presented in this section. The scCO2 is pumped to the equilibrium cell and drug sample and scCO2 are thoroughly mixed and allowed to attain equilibrium. […] To ensure equilibrium solubility, the experiments are performed with fresh samples at various time intervals. […] For each sampling a 600 µL volume saturated sample is collected via a collection valve in a deionized water preloaded sample vial. After discharging of each sample, the sampling valve was cleaned with 1 ml of deionized water. Drug sample solubility is estimated with the following formula:1 y2=ndrug/ndrug+nCO2 where y2 is solubility of the drug in scCO2, ndrug and nCO2 are number of moles of the drug and CO2 in the sampling loop, respectively.
The following formulas are used in data conversion2 ndrug=Cs·Vs/Ms 3 nCO2=V1ρ1/MCO2 where Cs is concentration of the drug in g/L. V1 = 600 × 10^–6 L and Vs = 5 × 10^–3 L are sampling loop and vial volumes, respectively. Ms and MCO2 are drug and CO2 molecular weights, respectively. ρ1 is density of scCO2 at each experimental condition, as presented in Table 2.
Solubility is also described as4 S=CSVs/V1
The solubility and mole fraction relation is described as5 S=ρMs/MCO2y2/1-y2

We go through 1 compound from PMC10198994 (Scientific Reports, 2023).

Structures can show the parent of a compound that is named as a salt. Where two headings read alike, the source gives them in different places. Marks after values point to notes of the source that are not given here.

Regarding `CCN(CCO)CCCC(C)Nc1ccnc2cc(Cl)ccc12` (centres unmarked) [HCQS, Hydroxychloroquine sulfate], in series [1] (Bartle et al., model constant B4), the “Enthalpy of sublimation ΔHsub” value is listed as ~89.1^c (approximate value) kJ/mol. Also, the results for the “Total Enthalpy, ΔHtotal” value in series [1] (Chrastil's model constant B1) and in series [1] (Modified Chrastil's model constant B2) were 69.80^a kJ/mol and 62.00^b kJ/mol, respectively. Besides, the “rise in solubility when temperature is raised from 308 to 338 K” value in series [2] (12 MPa) came out at 4.6 folds; in series [2] (27 MPa) it was 3.8 folds. The solubility thermodynamic at 1 h in series [2] (supercritical carbon dioxide (scCO2) in an equilibrium cell, scCO2, 308 K, 210 bar) came out at 93.9 µg/mL; in series [2] (supercritical carbon dioxide (scCO2) in an equilibrium cell, scCO2, 308 K, 270 bar), 132 µg/mL; in series [2] (supercritical carbon dioxide (scCO2) in an equilibrium cell, scCO2, 318 K, 120 bar), 40.9 µg/mL; in series [2] (scCO2, 308 K, 150 bar), 35 µg/mL; in series [2] (scCO2, 308 K, 180 bar), 49.7 µg/mL; in series [2] (scCO2, 318 K, 150 bar) it was 80.6 µg/mL. The solubility thermodynamic at 1 h was 165 µg/mL in series [2] (scCO2, 318 K, 210 bar); 210 µg/mL in series [2] (scCO2, 318 K, 240 bar); 49.4 µg/mL in series [2] (scCO2, 328 K, 120 bar); 103 µg/mL in series [2] (scCO2, 328 K, 150 bar); 207 µg/mL in series [2] (scCO2, 328 K, 210 bar); 356 µg/mL in series [2] (scCO2, 328 K, 270 bar). The solubility thermodynamic at 1 h in series [2] (scCO2, 338 K, 120 bar) is 53.4 µg/mL; in series [2] (scCO2, 338 K, 150 bar), 126 µg/mL; in series [2] (scCO2, 338 K, 180 bar) it was 182 µg/mL; in series [2] (scCO2, 338 K, 210 bar) it was 231 µg/mL; in series [2] (scCO2, 338 K, 240 bar) it was 291 µg/mL; in series [2] (scCO2, 338 K, 270 bar) it was 426 µg/mL.
